Here are results for three compounds from article PMC9663686, “Proline, hydroxyproline, and pyrrolidone carboxylic acid derivatives as highly efficient but reversible transdermal permeation enhancers” (Scientific Reports, 2022).

Bounds are passed on as bounds.

For one data set, the system named is human skin. Put plainly: Theophylline permeation through human skin in Franz diffusion cells with co-applied enhancer. Type of data set: in vitro ADME. The conditions noted are these: 1% enhancer co-applied with 5% TH in 60% PG; for CDERMIS, theophylline concentration in dermis / CEPIDERMIS, theophylline concentration in epidermis: after 48 h permeation, mean ± SEM; for ER, enhancement ratio of theophylline flux (fold increase in flux over control): human skin in vitro. As for the experimental part:
The prepared enhancers were applied at 1% in 60% aqueous propylene glycol (PG) to human skin in vitro; 60% PG was used as a negative control. PG was selected for its synergy with amphiphilic enhancers. Each model drug was co-applied with the enhancer at infinite dose.
Donor samples for reversibility and infrared studies contained 1% enhancer in 60% PG. All samples were thoroughly mixed, incubated at 32 °C for 24 h, and, if needed, carefully resuspended before applying on the skin. The effects of the studied enhancers on the solubility of model drugs were assessed as described previously.
The permeation-enhancing potencies of the prepared compounds were evaluated on human skin in Franz diffusion cells. Human skin was slowly thawed, cut into 2 × 2 cm pieces, fixed in Teflon holders with 1-cm^2 circular permeation areas, and mounted into Franz cells epidermal side up. The acceptor compartment (15.9 ± 0.1 ml) was filled with phosphate-buffered saline at pH 7.4 with 0.005% gentamicin (PBS) and stirred at 32 °C throughout the experiment. The skin integrity was checked by electrical impedance (any skin sample with the impedance < 10 kΩ was excluded). Then, 100 µl of a donor sample (infinite dose) was applied to the skin and covered with a glass slide. Acceptor phase samples (300 µl) were collected at predetermined time intervals for 48 h, to reach steady-state and were replaced by the same volume of fresh PBS. […] The drug concentrations were measured by HPLC (see supplementary data).
The flux of the model drug through the skin Jss (µg/cm^2/h) was calculated from the linear region of this plot. The enhancement ratio (ER) was calculated as the ratio of flux with and without an enhancer.
After the permeation experiment, the cells were dismounted, the skin was carefully washed with PBS, and the permeation area of the skin (1 cm^2) was punched off. After heating the skin fragments to 80 °C for 1 min, the epidermis (E) was peeled off the dermis (D), individually weighed and extracted by 1 and 2 ml, respectively, of an extraction solvent (identical to the mobile phase for the drug HPLC analysis, see supplementary data) for 24 h. The drug concentration was measured by HPLC (see supplementary data).

The subject of another data set is rat skin. The conditions noted are these: 5% concentration (154 mM), topical; cited from earlier work.
Data set [1] can be described thus: Skin viability after topical enhancer application (TTC reduction test). The conditions noted are these: human, freshly excised full thickness human skin, 1% in 60% PG for 24 or 48 h, decrease not significant, read-out: viability of treated skin relative to untreated skin. The method, then: Freshly excised full thickness human skin was incubated in Dulbecco’s modified Eagle’s medium (DMEM, Lonza, Verviers, Belgium) supplemented with 10% heat-inactivated fetal bovine serum (Merck, Darmstadt, Germany), and 1% penicillin/streptomycin + 1% amphotericin B solution (Lonza, Verviers, Belgium) at 37 °C in a humidified atmosphere of 5% CO2. Skin fragments were treated with 1% enhancer in 60% PG, 20 µl/cm^2, 60% PG alone or left untreated for 24 or 48 h. Then the skin was washed rinsed with distilled water and gently blotted dry. Skin viability was evaluated using the 2,3,5-triphenyltetrazolium chloride (TTC) reduction test[57]. Punch biopsies of 5 mm diameter were incubated in 1 ml of 1.5% TTC and 3% sodium succinate in phosphate buffered saline at pH 7.4 at 37 °C under nitrogen in the dark. After 1 h, the skin samples were dried and the dark red formazan derivative produced by the mitochondrial enzymes was extracted with 1 ml of 2-methoxyethanol for 12 h. Absorbance was measured at 490 nm using Tecan Infinite 200 M plate reader (Tecan, Grödig, Austria) and corrected using skin samples devitalized by boiling as a negative control. The viability of skin exposed to the different preparations was expressed as a percentage of untreated control skin.

In the case of `CCCCCCCCCCCCOC(=O)C1CCCN1C(C)=O` (stereo not drawn) [Pro2, N-acetyl proline dodecyl ester], in the data set on human skin, the “CDERMIS, theophylline concentration in dermis” value (shortened to “CDERMIS … in dermis”) turned out to be 0.37 ± 0.02 µg/mg; the “CEPIDERMIS, theophylline concentration in epidermis” value (“CEPIDERMIS … in epidermis” for short) was 1.04 ± 0.11 µg/mg; the “ER, enhancement ratio of theophylline flux (fold increase in flux over control)” value was determined as 28. The “visible changes in rat skin after topical application” value with rat skin is “did not cause any visible changes in rat skin”.

The term viability denotes a read-out of living cells in per cent, often relative to untreated cells. On to `CCCCCCCCCCCCOC(=O)C1CCCN1C(=O)CC` (stereo not drawn) [Pro3], for which, in the data set on human skin, the “CDERMIS … in dermis” value was determined as 0.32 ± 0.03 µg/mg; the “CEPIDERMIS … in epidermis” value was 1.11 ± 0.17 µg/mg; the “ER, enhancement ratio of theophylline flux (fold increase in flux over control)” value came to 31. In data set [1], the viability at 1 % was at least 92%.

Turning to `CCCCCCCCCCCCOC(=O)C1CCCN1C(=O)CCC` (stereo not drawn) [Pro4], in the data set with human skin, the “CDERMIS … in dermis” value is given as 0.25 ± 0.01 µg/mg; the “CEPIDERMIS … in epidermis” value is reported as 0.83 ± 0.08 µg/mg; the “ER, enhancement ratio of theophylline flux (fold increase in flux over control)” value came to 25. In data set [1], the viability at 1 % is at least 92%.
